The text below walks through data of BindingDB's records for doi:10.1016/j.bioorg.2015.10.006 (University of Karachi, 2015).

The test addresses T1, Thymidine phosphorylase (Escherichia coli (strain SMS-3-5 / SECEC), UniProt B1LEI7).
T1 sequence (B1LEI7 whole entry): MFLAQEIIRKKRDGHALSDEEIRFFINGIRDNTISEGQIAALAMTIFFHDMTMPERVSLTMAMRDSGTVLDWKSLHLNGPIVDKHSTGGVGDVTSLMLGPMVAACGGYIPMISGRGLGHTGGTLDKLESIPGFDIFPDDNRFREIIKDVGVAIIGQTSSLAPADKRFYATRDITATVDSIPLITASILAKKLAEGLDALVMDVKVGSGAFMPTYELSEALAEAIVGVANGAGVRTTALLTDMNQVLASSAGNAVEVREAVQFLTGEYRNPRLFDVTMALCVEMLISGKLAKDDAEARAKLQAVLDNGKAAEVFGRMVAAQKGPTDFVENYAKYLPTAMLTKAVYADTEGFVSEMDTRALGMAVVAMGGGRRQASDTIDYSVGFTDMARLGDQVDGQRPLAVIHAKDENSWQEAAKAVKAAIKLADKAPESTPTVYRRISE
In words: Thymidine Phosphorylase Inhibition Assay. Conditions: pH 7. Here is the method:
TP inhibition assay was performed spectrophotometrically. The method of Bera et al. was followed with slight modifications. Reaction mixture of 200 µL, contained 20 µL of enzyme (0.058 unit/well), 150 µL of potassium phosphate buffer (pH 7.0, 50 mM), and 10 µL of test compound (0.5 mM). The reaction mixture was then incubated for 10 min at 30 °C. […] Every experiment was run in triplicate. 7-Deazaxanthine was used as positive control.
A word on the IC50: it is the concentration needed to halve the response being measured. Low values mean higher potency, high ones lower potency. `O=c1[nH]c(-c2ccc(O)cc2)nc2ccccc12` had an IC50 of 234 µM.

The compound `O=c1[nH]c(-c2cccc(O)c2)nc2ccccc12` had an IC50 of 295 µM.

`COc1ccc(-c2nc3ccccc3c(=O)[nH]2)cc1O` gave an IC50 of 169 µM.

As for `CCOc1cc(-c2nc3ccccc3c(=O)[nH]2)ccc1O`, the IC50 stood at 256 µM.

For the compound `O=c1[nH]c(-c2ccc(O)c(O)c2)nc2ccccc12`, the IC50 was found to be 42.9 µM.

In turn, `O=c1[nH]c(-c2cc(O)ccc2O)nc2ccccc12` registered an IC50 of 59.5 µM.
